Laboratory results from US7902354B2, “Lapachone compounds and methods of use thereof” (ArQule, Inc., priority 2006, dated 2011).

Legend:
Type in all cases: cell-based
[1] = system: A549 human lung carcinoma cells; assay: MTS cell viability assay, A549 human lung carcinoma cells; conditions: A549, 4 h compound incubation, MTS, read-out: IC50 Values, Cancerous Cells, Lung A549
[2] = system: DLD-1 human colon carcinoma cells; assay: MTS cell viability assay, DLD-1 human colon carcinoma cells; conditions: DLD-1, 4 h compound incubation, MTS, read-out: IC50 Values, Cancerous Cells, Colon DLD-1
[3] = system: DU-145 human prostate carcinoma cells; assay: MTS cell viability assay, DU-145 human prostate carcinoma cells; conditions: DU-145, 4 h compound incubation, MTS, read-out: IC50 Values, Cancerous Cells, Prostate DU-145
[4] = system: K-562 human leukemia cells; assay: MTS cell viability assay, K-562 human leukemia cells; conditions: K562, K-562, 4 h compound incubation, MTS, read-out: IC50 Values, Cancerous Cells, Leukemia K-562
[5] = system: PACA-2 human pancreatic carcinoma cells; assay: MTS cell viability assay, PACA-2 human pancreatic carcinoma cells; conditions: PACA-2, 4 h compound incubation, MTS, read-out: IC50 Values, Cancerous Cells, Pancreas PACA-2
[6] = system: NCM-460 normal colon epithelial cells; assay: MTS cell viability assay, NCM-460 normal colon epithelial cells; conditions: for IC50: Homo sapiens, NCM460, NCM-460, 4 h compound incubation, MTS, read-out: IC50 Values, Normal Cells, Colon NCM-460; for Fold Selectivity (NCM-460/DLD1): ratio of IC50 NCM-460 / DLD1

Structure (SMILES)	IC50 [1] [µM]	IC50 [2] [µM]	IC50 [3] [µM]	IC50 [4] [µM]	IC50 [5] [µM]	IC50 [6] [µM]	Fold Selectivity (NCM-460/DLD1) [6]
CC(C(=O)Nc1ccccc1)N1CCC2(CC1)CSC1=C(O2)c2ccccc2C(=O)C1=O (stereo not shown) [Compound 134, 2-(5,6-dioxo-5,6-dihydro-1′H-spiro[naphtho[1,2-b][1,4]oxathiine-2,4′-piperidin]-1′-yl)-N-phenylpropanamide]	23.3	3.94	6.87	7.22	4.43	15.6	4.0
O=C1C(=O)c2ccccc2C2=C1SCC1(CCN(C3C=CCCC3)CC1)O2 (stereo not shown) [Compound 135, 1′-cyclohex-2-en-1-ylspiro[naphtho[1,2-b][1,4]oxathiine-2,4′-piperidine]-5,6-dione]	19.2	4.89	5.07	4.02	7.42	8.35	1.7
O=C1C(=O)c2ccccc2C2=C1SCC1(CCN(CC3CCCCC3)CC1)O2 [Compound 136, 1′-(cyclohexylmethyl)spiro[naphtho[1,2-b][1,4]oxathiine-2,4′-piperidine]-5,6-dione]	9.6	2.95	4.32	4.34	4.13	8.7	2.9
CC(c1ccccc1)N1CCC2(CC1)CSC1=C(O2)c2ccccc2C(=O)C1=O (stereo not shown) [Compound 137, 1′-(1-phenylethyl)spiro[naphtho[12-b][1,4]oxathiine-2,4′-piperidine]-5,6-dione]	8.27	4.08	4.32	4.25	4.12	10	2.5
O=C1C(=O)c2ccccc2C2=C1SCC1(CCN(C3CCCC3)CC1)O2 [Compound 138, 1′-cyclopentylspiro[naphtho[1,2-b][1,4]oxathiine-2,4′-piperidine]-5,6-dione]	7.8	1.43	2.52	1.43	1.48	3.55	2.5
O=C1C(=O)c2ccccc2C2=C1SCC1(CCN(CCCC(F)(F)F)CC1)O2 [Compound 141, 1′-(4,4,4-trifluorobutyl)spiro[naphtho[1,2-b][1,4]oxathiine-2,4′-piperidine]-5,6-dione]	5.01	1.95	4.01	2.39	2.44	8.13	4.2
O=C1C(=O)c2ccccc2C2=C1SCC1(CCN(Cc3ccc(F)c(Cl)c3)CC1)O2 [Compound 142, 1′-(3-chloro-4-fluorobenzyl)spiro[naphtho[1,2-b][1,4]oxathiine-2,4′-piperidine]-5,6-dione]	44.2	4.25	6.93	8.72	10.5	15.1	3.6
C=CCCN1CCC2(CC1)CSC1=C(O2)c2ccccc2C(=O)C1=O [Compound 143, 1′-but-3-en-1-ylspiro[naphtho[1,2-b][1,4]oxathiine-2,4′-piperidine]-5,6-dione]	7.39	2.14	4.26	3.29	2.5	6.39	3.0
O=C1C(=O)c2ccccc2C2=C1SCC1(CCN(CCOc3ccc(Cl)cc3)CC1)O2 [Compound 145, 1′-[2-(4-chlorophenoxy)ethyl]spiro[naphtho[1,2-b][1,4]oxathiine-2,4′-piperidine]-5,6-dione]	5.55	3.8	4.03	7.87	2.74	21	5.5
Cc1ccc(CN2CCC3(CC2)CSC2=C(O3)c3ccccc3C(=O)C2=O)cc1F [Compound 146, 1′-(3-fluoro-4-methylbenzyl)spiro[naphtho[1,2-b][1,4]oxathiine-2,4′-piperidine]-5,6-dione]	38.2	4.53	5.77	12.1	4.1	26.4	5.8
C=CC(C)(O)CN1CCC2(CC1)CSC1=C(O2)c2ccccc2C(=O)C1=O (stereo not shown) [Compound 159, 1′-(2-hydroxy-2-methylbut-3-en-1-yl)spiro[naphtho[1,2-b][1,4]oxathiine-2,4′-piperidine]-5,6-dione]	14.3	4.47	5.03	4.13	4.03	10.2	2.3
O=C1C(=O)c2ccccc2C2=C1SCC1(CCN(CC(O)CC(F)(F)F)CC1)O2 (stereo not shown) [Compound 160, 1′-(4,4,4-trifluoro-2-hydroxybutyl)spiro[naphtho[1,2-b][1,4]oxathiine-2,4′-piperidine]-5,6-dione]	6.72	1.69	3.92	1.53	1.55	5.56	3.3
CCCCC(O)CN1CCC2(CC1)CSC1=C(O2)c2ccccc2C(=O)C1=O (stereo not shown) [Compound 162, 1′-(2-hydroxyhexyl)spiro[naphtho[2-b][1,4]oxathiine-2,4′-piperidine]-5,6-dione]	6.95	1.36	2.77	1.5	1.45	2.8	2.1
O=C1C(=O)c2ccccc2C2=C1SCC1(CCN(CC(O)CN3CCOCC3)CC1)O2 (stereo not shown) [Compound 166, 1′-(2-hydroxy-3-morpholin-4-ylpropyl)spiro[naphtho[1,2-b][1,4]oxathiine-2,4′-piperidine]-5,6-dione]	13.6	3.7	4.16	2.26	1.47	8.69	2.3

More lines, main results first:

IC50 [1] [µM]	IC50 [2] [µM]	IC50 [3] [µM]	IC50 [4] [µM]	IC50 [5] [µM]	Structure (SMILES)	IC50 [6] [µM]	Fold Selectivity (NCM-460/DLD1) [6]
27.8	4.32	4.42	4.8	4.17	O=C1C(=O)c2ccccc2C2=C1SCC1(CCN(C/C=C/c3ccccc3)CC1)O2 [Compound 139, 1′-[(2E)-3-phenylprop-2-en-1-yl]spiro[naphtho[1.2-b][1,4]oxathiine-2,4′-piperidine]-5,6-dione]	19.5	4.5
21.5	3.37	4.2	4.26	3.93	O=C1C(=O)c2ccccc2C2=C1SCC1(CCN(CCOc3ccccc3)CC1)O2 [Compound 140, 1′-(2-phenoxyethyl)spiro[naphtho[1,2-b][1,4]oxathiine-2,4′-piperidine]-5,6-dione]	12.2	3.6
8.19	2.17	4.91	4.32	2.82	O=C1C(=O)c2ccccc2C2=C1SCC1(CCN(CCCOc3ccccc3)CC1)O2 [Compound 144, 1′-(3-phenoxypropyl)spiro[naphtho[1,2-b][1,4]oxathiine-2,4′-piperidine]-5,6-dione]	9.9	4.6
8.03	3.63	2.26	7.6	2.08	CC(C)(C)c1ccc(OCC(O)CN2CCC3(CC2)CSC2=C(O3)c3ccccc3C(=O)C2=O)cc1 (stereo not shown) [Compound 157, 1′-[3-(4-tert-butylphenoxy)-2-hydroxypropyl]spiro[naphtho[1,2-b][1,4]oxathiine-2,4′-piperidine]-5,6-dione]	28.2	7.8
5.6	1.48	1.71	1.44	1.32	O=C1C(=O)c2ccccc2C2=C1SCC1(CCN(CC(O)COc3ccccc3)CC1)O2 (stereo not shown) [Compound 158, 1′-(2-hydroxy-3-phenoxypropyl)spiro[naphtho[1,2-b][1,4]oxathiine-2,4′-piperidine]-5,6-dione]	4.91	3.3
9.02	1.52	2.88	3.12	1.42	O=C1C(=O)c2ccccc2C2=C1SCC1(CCN(CC(O)COc3ccc(F)cc3)CC1)O2 (stereo not shown) [Compound 164, 1′-[3-(4-fluorophenoxy)-2-hydroxypropyl]spiro[naphtho[1,2-b][1,4]oxathiine-2,4′-piperidine]-5,6-dione]	9.74	6.4
6.73	1.92	3.08	2.31	1.44	O=C1C(=O)c2ccccc2C2=C1SCC1(CCN(CC(O)COCc3ccco3)CC1)O2 (stereo not shown) [Compound 165, 1′-[3-(2-furylmethoxy)-2-hydroxypropyl]spiro[naphtho[2-b][1,4]oxathiine-2,4′-piperidine]-5,6-dione]	4.71	2.5
7.56	1.35	2.76	1.53	1.26	O=C1C(=O)c2ccccc2C2=C1SCC1(CCN(CC(O)c3ccccc3)CC1)O2 (stereo not shown) [Compound 167, 1′-(2-hydroxy-2-phenylethyl)spiro[naphtho[1,2-b][1,4]oxathiine-2,4′-piperidine]-5,6-dione]	3.68	2.7
